Consider 3 molecules from paper PMC7408179 (Pharmaceutics, 2020).

Molecules are shown by their SMILES. Read-outs that look alike come from different tables or passages of the source. Marks after values point to notes of the source that are not given here.

A short description of data set [1]: Duodenal fluid volume via MRI, control vs PPI condition. As to conditions: for relative decrease in duodenal AUVC: first 180 min after Norvir tablet with 240 mL water, n = 5. In kind it is in vivo, human. The method, then:
All volunteers provided written informed consent before participating in the trial. Each trial day, the participant came to the radiology department at the University Hospitals Leuven after an overnight fast (at least 12 h). Water was allowed until the night before the trial except for the volume needed to swallow the PPI tablet. For the PPI condition, participants were pre-treated with a once-daily dose of Nexium (just before breakfast) starting two days prior to the trial day. On the morning of the trial, the final Nexium tablet was taken 2 h prior to the arrival time at the hospital, with as little water as possible to swallow the tablet. […] A venous catheter was placed in the subject’s arm and a blank blood sample (5 mL) was collected in heparinized tubes (BD Vacutainer systems, Plymouth, UK). […] A scouting sequence was used in the coronal and transversal plane to allow correct sequence positioning. At each time point, three standardized sequences were used to acquire images; sequence parameters are depicted in Table 1. Images were taken during exhalation breath hold. Images were analysed using Horos™ (Version 3.3.6, Horos project), a free open source medical images viewer. […] This made the sequence unsuitable for fluid determination as the duodenum passes these blood vessels which would interfere with the outlining of the fluid present in the duodenum. Sequence 2 was therefore used as a localizer for the duodenum (i.e., determining the location of the duodenojejunal flexure (Figure 1). As free water lights up in a T2 weighted image, a trained operator semi-automatically traced all the bright spots in each slice for the stomach and duodenum, according to a published procedure. […] This cut-off value must be regarded as a rule of thumb and manual correction was made to account for bright organs like the gall bladder and obvious acquisition errors (e.g., illogical dark spots in the middle of a fluid filled stomach).

Data set [2] is described as follows: Gastric fluid volume via MRI, control vs PPI condition. In kind it is in vivo, human. Conditions: for relative decrease in total gastric fluid volume (AUVC): first 180 min after Norvir tablet with 240 mL water, median, n = 5.
Procedure: Each trial day, the participant came to the radiology department at the University Hospitals Leuven after an overnight fast (at least 12 h). Water was allowed until the night before the trial except for the volume needed to swallow the PPI tablet. For the PPI condition, participants were pre-treated with a once-daily dose of Nexium (just before breakfast) starting two days prior to the trial day. On the morning of the trial, the final Nexium tablet was taken 2 h prior to the arrival time at the hospital, with as little water as possible to swallow the tablet. […] A venous catheter was placed in the subject’s arm and a blank blood sample (5 mL) was collected in heparinized tubes (BD Vacutainer systems, Plymouth, UK). […] In addition, subjects were placed in a Philips 1.5 T MRI System (Philips, Best, The Netherlands) to assess the gastric and duodenal fluid volume, once before administration of the study medication and afterwards at predetermined time points, i.e., 20, 40, 60, 90, 120, 150 and 180 min.
Upon entering the MRI system, a rectangular dStream FlexCoverage Anterior coil (Ingenia 1.5 tesla, Philips, Best, The Netherlands) was placed on the torso of the subjects. A scouting sequence was used in the coronal and transversal plane to allow correct sequence positioning. […] Images were taken during exhalation breath hold.
Images were analysed using Horos™ (Version 3.3.6, Horos project), a free open source medical images viewer. Gastric and duodenal fluid volumes reported in this study were acquired with sequence 1. […] This made the sequence unsuitable for fluid determination as the duodenum passes these blood vessels which would interfere with the outlining of the fluid present in the duodenum.
As free water lights up in a T2 weighted image, a trained operator semi-automatically traced all the bright spots in each slice for the stomach and duodenum, according to a published procedure [21]. To differentiate between free water and other contents in the respective organs, a cut-off value (lower threshold) of 30% of the brightest voxel in either the stomach or the duodenum was applied. This cut-off value must be regarded as a rule of thumb and manual correction was made to account for bright organs like the gall bladder and obvious acquisition errors (e.g., illogical dark spots in the middle of a fluid filled stomach). Subsequently, a 3D image of the traced fluid was rendered and the fluid volume was calculated by adding up the fluid volumes of each slide (multiplying the surface area of the traced region of interest with the slice thickness).
On the set-up of data set [3]: method as in PMID 32461076. Conditions: daily dose of 40 mg esomeprazole for three days; cited from earlier work.
The conditions of data set [4]: cited from earlier work.
On the set-up of data set [5]: method as in PMID 32461076. As to conditions: median; esomeprazole pre-treatment, Norvir tablet; cited from earlier work.
The nature of data set [6]: Ritonavir plasma concentrations after oral intake of a Norvir tablet, control vs PPI condition (LC-MS/MS). In kind it is in vivo, human. Conditions: for AUC0-480min / Tmax: one Norvir tablet oral, fasted, median (range), n = 4. As for the experimental part:
All volunteers provided written informed consent before participating in the trial. Each trial day, the participant came to the radiology department at the University Hospitals Leuven after an overnight fast (at least 12 h). Water was allowed until the night before the trial except for the volume needed to swallow the PPI tablet. For the PPI condition, participants were pre-treated with a once-daily dose of Nexium (just before breakfast) starting two days prior to the trial day. On the morning of the trial, the final Nexium tablet was taken 2 h prior to the arrival time at the hospital, with as little water as possible to swallow the tablet. A daily dose of 40 mg esomeprazole for three days has shown to elevate and sustain the gastric and duodenal pH to values around 7.1 and 7.5, respectively, indicative of the acid-inhibitory effect. A venous catheter was placed in the subject’s arm and a blank blood sample (5 mL) was collected in heparinized tubes (BD Vacutainer systems, Plymouth, UK). […] In addition, subjects were placed in a Philips 1.5 T MRI System (Philips, Best, The Netherlands) to assess the gastric and duodenal fluid volume, once before administration of the study medication and afterwards at predetermined time points, i.e., 20, 40, 60, 90, 120, 150 and 180 min.
Blood samples were stored on ice during the remainder of the study day, before centrifugation at 2880× g, for 10 min at 4 °C (Centrifuge 5804R, Eppendorf, Hamburg, Germany). Plasma was collected and stored at −20 °C pending analysis. For analysis, a liquid-liquid extraction was performed in which 50 µL of plasma was added to 450 µL HBSS and vortexed for a few seconds. Lopinavir was used as internal standard: 100 µL of a 200 nM stock solution in 25% v/v DMSO-water was added to the mixture. Before extraction, the pH was adjusted by adding 500 µL of 40 mM borax buffer (pH = 9), followed by 5 mL of the extraction medium hexane—ethyl acetate (50:50, v/v) and shaken for 1 min. The mixture was centrifugated at 2880× g, for 5 min at 4 °C and the organic layer was transferred to a new test tube and evaporated to dryness under a gentle airflow. The residue was redissolved in 1 mL of methanol and vortexed for 30 s before another evaporation cycle. The resulting residue was reconstituted in 200 µL methanol—water (50:50, v/v) awaiting analysis.
For the analysis, a Waters ACQUITY UHPLC H-Class system consisting of a quaternary pump was used combined with a Waters Xevo TQ-S micro mass spectrometer (Waters, Milford, MA, USA). Separation took place on a Kinetex® column (2.6 µm XB-C18 100 A, 50 × 2.1 mm, Phenomenex, Utrecht, the Netherlands) using isocratic elution with methanol—0.1% formic acid (65:35, v/v) followed by a wash gradient and re-equilibration (Table 2). Column temperature was set at 35 °C and samples were kept in the autosampler at 15 °C. […] Peaks were detected with MS/MS, using electrospray ionization (ESI) as ion source. […] Fragmentation was induced by collision with argon. The system was operated in multi-reaction monitoring (MRM) mode with the mass transitions according to Table 3.

For data set [7] the following is noted: cited from earlier work. This is another data set of the same source.
Details of data set [8]: method as in PMID 18991471. Conditions: compared to esomeprazole, pantoprazole and rabeparzole; cited from earlier work.
Setting [9] is: PPI vs control condition, volunteer HV02.
Setting [10] is: PPI vs control condition, median, present study.

Turning to `COc1ccc2nc([S@@+]([O-])Cc3ncc(C)c(OC)c3C)[nH]c2c1` [esomeprazole], the duodenal fluid volume in data set [1] (PPI condition, after Norvir tablet with 240 mL water, median) is reported as 8.6 mL. The “relative decrease in duodenal AUVC” value was determined as 33% in data set [1] (PPI vs control condition, median) and 33.3% in data set [1] (PPI vs control condition, median, listed as PPI). In addition, the “drop in duodenal fluid AUVC” value in data set [1] (setting [9]) is reported as 37%. Besides, the “decrease in duodenal fluid volume” value in data set [1] (after PPI treatment, average over all volunteers) worked out at 32%. Besides, the “relative decrease in gastric residual volume (GRV)” value in data set [2] (PPI vs control condition, fasted, prior to ritonavir intake, five volunteers) was determined as 41%. Also, the “relative decrease in total gastric fluid volume (AUVC)” value in data set [2] (PPI vs control condition) came out at 44%; in data set [2] (PPI vs control condition, listed as PPI), 43.9%. The “gastric residual volume (GRV)” value in data set [2] (following pre-treatment with esomeprazole 40 mg for three days, fasted state, mean ± SD) is reported as 20 ± 15 mL. Further, the “duodenal pH” value in data set [3] is reported as around 7.5. The “gastric pH” value in data set [3] is reported as “around 7.1”.
The term Log P denotes a log measure of how a compound divides between an organic and an aqueous phase. As a reminder, the pKa is the pH at which an ionisable group is half protonated. A word on the Cmax: it is the peak of the concentration-time curve. As for `CC(C)c1nc(CN(C)C(=O)N[C@H](C(=O)N[C@@H](Cc2ccccc2)C[C@H](O)[C@H](Cc2ccccc2)NC(=O)OCc2cncs2)C(C)C)cs1` [ritonavir], in data set [4], the “Log P” value is reported as 4.3. Moreover, the pKa in data set [4] (weak base) is listed as 2.6. In data set [5], the “PPI-induced decrease in AUC0–480min” value is 39.5%. Further, the results for the “PPI-induced decrease in Cmax” value in data set [5] and in data set [6] (setting [10]) were 49.6% and 39.0%, respectively. Further, the delay in tmax is 50% in data set [5] and 10% in data set [6] (setting [10]). Besides, the AUC0-480min was 2.5 · 10^5 (1.2 · 10^5–3.2 · 10^5) nmol·min/L in data set [6] (PPI condition (esomeprazole 40 mg once daily for three days)) and 3.8 · 10^5 (2.6 · 10^5–5.9 · 10^5) nmol·min/L in data set [6] (control condition). For the same molecule, the “drop in plasma AUC” value in data set [6] (setting [9]) was found to be 65%. The Tmax in data set [6] (both sexes, human, plasma, po, 40 mg, PPI condition (esomeprazole 40 mg once daily for three days), read-out: tmax (converted)) is 3.75 h; in data set [6] (both sexes, human, plasma, po, 100 mg, control condition, read-out: tmax (converted)), 3.22 h; in data set [6] (control condition) it was 192.5 (175–240) min. The molecule further showed a Cmax in data set [6] (both sexes, human, plasma, po, 100 mg) of 1130 nM.
As to `COc1ccc2[nH]c([S+]([O-])Cc3ncc(C)c(OC)c3C)nc2c1` (stereo not drawn) [omeprazole], the “effect on plasma Cmax or AUC of ritonavir” value in data set [7] is “did not report an effect”. For the same molecule, in data set [8], the “effect on the gastric fluid volume compared to other PPIs” value is on record as “less pronounced effect on the gastric fluid volume”.
